ChEMBL document CHEMBL1147879, “Synthesis of soluble multivalent glycoconjugates that target the Hc region of botulinum neurotoxin A” (Bioorg Med Chem Lett, 2007)
Active and inactive are the calls of the source. The rule behind the calls is not given here.

Biological target: Synaptosomal-associated protein 25 (Rattus norvegicus) (UniProt P60881)
Experiment: Inhibition of BoNT/A-mediated SNAP25 cleavage in rat spinal card cells after 24 hrs by Western blot analysis
Format: cell-based

Synaptosomal-associated protein 25 (Rattus norvegicus), sequence (P60881 whole entry, looked up): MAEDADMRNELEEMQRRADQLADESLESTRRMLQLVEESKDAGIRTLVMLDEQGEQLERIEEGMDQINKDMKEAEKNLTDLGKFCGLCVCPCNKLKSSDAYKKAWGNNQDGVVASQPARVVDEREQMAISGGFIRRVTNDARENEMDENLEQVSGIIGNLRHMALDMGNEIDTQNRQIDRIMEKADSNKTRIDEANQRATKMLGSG

Row | SMILES | Activity
1 | CC(=O)N[C@@H]1[C@@H]([C@@H](C)C(O)CCO)O[C@](SCC(=O)NCCOCCOCCOCCn2cc(CNC(=O)c3cc(NC(=O)CNC(=O)c4cc(NC(=O)CN)cc(C(=O)NCC(=N)Nc5cc(C(=O)NCc6cn(CCOCCOCCOCCNC(=O)CS[C@@]7(C(=O)O)C[C@@H](O)[C@H](NC(C)=O)[C@@H]([C@@H](C)C(O)CCO)O7)nn6)cc(C(=O)NCc6cn(CCOCCOCCOCCNC(=O)CS[C@@]7(C(=O)O)C[C@@H](O)[C@H](NC(C)=O)[C@@H]([C@@H](C)C(O)CCO)O7)nn6)c5)c4)cc(C(=O)NCc4cn(CCOCCOCCOCCNC(=O)CS[C@]5(C(=O)O)C[C@H](O)[C@@H](NC(C)=O)[C@H]([C@H](C)C(O)CCO)O5)nn4)c3)nn2)(C(=O)O)C[C@H]1O (some centres not stated) | Active
2 | CC(=O)N[C@@H]1[C@@H]([C@@H](C)C(O)CCO)O[C@](SCC(=O)NCCOCCOCCOCCn2cc(CNC(=O)c3cc(NC(=O)CN)cc(C(=O)NCc4cn(CCOCCOCCOCCNC(=O)CS[C@]5(C(=O)O)C[C@H](O)[C@@H](NC(C)=O)[C@H]([C@H](C)C(O)CCO)O5)nn4)c3)nn2)(C(=O)O)C[C@H]1O (some centres not stated) | Active
